These results are taken from patent publication US20240382483A1, “HETEROCYCLIC EGFR INHIBITORS FOR USE IN THE TREATMENT OF CANCER” (Blueprint Medicines Corporation, priority 2021, published 2024).

One test deals with T1, EGFR (L858R T790M C797S) (Homo sapiens, UniProt P00533, C797S/L858R/T790M).
T1 construct: purchased SignalChem E10-122VG
Description: Biochemical EGFR inhibition assay (Caliper mobility shift), EGFR LRTMCS. The settings on record: LRTMCS (PH) IC50 (nM) @ 1 mM ATP (Num), EGFR LRTMCS mutant. The gist of the method: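 Apparent IC50s were derived by plotting percent activity against the log of compound concentration. Activity was measured as phosphopeptide electrophoretically separated from substrate, after reactions at room temperature reached 10% to 20% phosphorylation and were halted with 35 mM EDTA.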

The target in test [1] is T2, intracellular phosphorylation of EGFR in NCI-H1975 cell line that harbors the EGFR L858R T790M mutations (Homo sapiens, UniProt P00533, L858R/T790M).
T2 construct: NCI-H1975 cell line that harbors the EGFR L858R T790M mutations (ATCC, CRL-5908); host or cells: NCI-H1975
Description: NCI-H1975 pEGFR AlphaLISA assay. To be noted: NCI-H1975 cells (EGFR L858R T790M), p-EGFR (Tyr1068), 4-5 hours incubation; read-out: Ext pEGFR H1975 GMean IC50 (nM) Protocol: @Pharmaron AlphaLISA (Num). Format: cell-based. The method, then: On the next day, the test compounds and DMSO control were added into H1975 cell plate followed by incubation at 37C/5% CO2 for 4-5 hours. […] Then 5 μL of a donor bead mix was added to each well followed by overnight incubation at room temperature in dark. On the next day, the plate was read at a compatible plate reader to obtain pEGFR signal. Percent of pEGFR inhibition was plotted against log concentration of compounds to generate IC50 values.

Each structure is given as a SMILES string. A value given as a limit tells only on which side of the number the result lay.

T2 sequence (P00533 25-1210 T790M/L858R): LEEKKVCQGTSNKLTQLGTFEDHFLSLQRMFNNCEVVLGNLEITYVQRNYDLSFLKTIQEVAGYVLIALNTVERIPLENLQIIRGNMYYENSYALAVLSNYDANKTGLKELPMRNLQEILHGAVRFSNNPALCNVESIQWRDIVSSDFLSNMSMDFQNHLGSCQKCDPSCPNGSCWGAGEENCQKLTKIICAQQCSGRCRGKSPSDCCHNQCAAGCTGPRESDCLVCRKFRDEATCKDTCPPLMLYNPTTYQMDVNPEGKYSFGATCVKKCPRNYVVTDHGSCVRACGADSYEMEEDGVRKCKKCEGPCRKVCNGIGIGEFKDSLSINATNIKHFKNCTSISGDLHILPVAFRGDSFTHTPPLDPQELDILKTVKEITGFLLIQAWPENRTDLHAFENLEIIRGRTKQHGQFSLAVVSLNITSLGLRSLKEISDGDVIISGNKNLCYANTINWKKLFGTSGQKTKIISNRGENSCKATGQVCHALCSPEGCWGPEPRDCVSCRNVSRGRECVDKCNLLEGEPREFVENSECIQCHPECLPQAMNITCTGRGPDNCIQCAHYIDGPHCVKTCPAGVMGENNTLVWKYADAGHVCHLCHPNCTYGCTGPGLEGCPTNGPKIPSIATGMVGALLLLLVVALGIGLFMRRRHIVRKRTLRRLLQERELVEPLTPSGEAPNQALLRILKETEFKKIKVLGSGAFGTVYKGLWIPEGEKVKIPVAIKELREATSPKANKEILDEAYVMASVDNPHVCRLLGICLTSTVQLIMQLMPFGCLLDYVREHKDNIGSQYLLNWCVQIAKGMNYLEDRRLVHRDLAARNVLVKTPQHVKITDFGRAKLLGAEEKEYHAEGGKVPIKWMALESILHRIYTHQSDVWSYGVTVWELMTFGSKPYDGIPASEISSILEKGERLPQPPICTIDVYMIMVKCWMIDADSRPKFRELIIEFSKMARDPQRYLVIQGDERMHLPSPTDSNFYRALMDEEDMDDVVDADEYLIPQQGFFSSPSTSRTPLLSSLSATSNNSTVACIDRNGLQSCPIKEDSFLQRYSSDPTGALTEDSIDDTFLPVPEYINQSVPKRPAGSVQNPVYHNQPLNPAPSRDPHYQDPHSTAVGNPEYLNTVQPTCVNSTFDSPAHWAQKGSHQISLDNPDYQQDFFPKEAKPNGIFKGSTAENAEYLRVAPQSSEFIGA
T1 sequence (P00533 25-1210 T790M/C797S/L858R): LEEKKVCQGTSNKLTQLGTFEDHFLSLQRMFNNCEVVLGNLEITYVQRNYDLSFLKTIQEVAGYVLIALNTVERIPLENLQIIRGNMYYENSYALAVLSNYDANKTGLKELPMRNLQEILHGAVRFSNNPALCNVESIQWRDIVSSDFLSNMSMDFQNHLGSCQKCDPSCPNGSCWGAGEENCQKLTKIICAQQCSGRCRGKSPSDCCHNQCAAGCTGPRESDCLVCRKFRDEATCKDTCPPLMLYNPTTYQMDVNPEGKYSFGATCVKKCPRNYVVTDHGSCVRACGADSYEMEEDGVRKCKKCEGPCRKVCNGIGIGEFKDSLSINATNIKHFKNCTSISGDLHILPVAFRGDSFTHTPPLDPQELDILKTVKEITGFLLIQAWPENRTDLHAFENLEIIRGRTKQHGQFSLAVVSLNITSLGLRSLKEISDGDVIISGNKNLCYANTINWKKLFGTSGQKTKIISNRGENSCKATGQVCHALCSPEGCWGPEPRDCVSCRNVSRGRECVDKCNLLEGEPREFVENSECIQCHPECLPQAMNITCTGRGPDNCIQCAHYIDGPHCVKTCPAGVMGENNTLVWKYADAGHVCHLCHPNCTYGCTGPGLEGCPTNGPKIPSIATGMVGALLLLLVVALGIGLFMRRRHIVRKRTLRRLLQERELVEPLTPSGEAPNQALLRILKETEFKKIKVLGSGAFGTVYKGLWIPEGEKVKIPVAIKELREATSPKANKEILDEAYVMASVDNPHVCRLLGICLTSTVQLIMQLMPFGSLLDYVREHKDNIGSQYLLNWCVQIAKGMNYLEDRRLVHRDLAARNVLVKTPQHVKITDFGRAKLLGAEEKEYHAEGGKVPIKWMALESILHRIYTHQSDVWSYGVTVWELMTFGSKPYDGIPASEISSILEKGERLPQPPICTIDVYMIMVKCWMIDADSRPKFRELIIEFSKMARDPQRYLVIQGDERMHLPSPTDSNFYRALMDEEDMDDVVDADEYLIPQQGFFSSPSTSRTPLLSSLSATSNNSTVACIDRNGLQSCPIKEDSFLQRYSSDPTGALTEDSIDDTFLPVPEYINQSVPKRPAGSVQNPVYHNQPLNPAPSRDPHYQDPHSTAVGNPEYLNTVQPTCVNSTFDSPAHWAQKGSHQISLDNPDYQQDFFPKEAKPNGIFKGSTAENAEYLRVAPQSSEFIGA

As usually defined, the IC50 is the point on the concentration scale where inhibition reaches its midpoint. Consider `C[C@@H]1[C@H](F)CN1c1ncc([C@@H](C)CO)c2cc(Nc3ccnc(N4CC[C@@H](O)[C@@](C)(F)C4)n3)ncc12` (single isomer, unassigned) [Example 209, (3S,4R)-3-fluoro-1-(4-((8-((2R,3R)-3-fluoro-2-methylazetidin-1-yl)-5-((R)-1-hydroxypropan-2-yl)-2,7-naphthyridin-3-yl)amino)pyrimidin-2-yl)-3-methylpiperidin-4-ol or (3S,4R)-3-fluoro-1-(4-((8-((2R,3R)-3-fluoro-2-methylazetidin-1-yl)-5-((S)-1-hydroxypropan-2-yl)-2,7-naphthyridin-3-yl)amino)pyrimidin-2-yl)-3-methylpiperidin-4-ol], for which the results for the IC50 (on EGFR (L858R T790M C797S); in test [1]) were 15 to 20 nM and greater than 50 nM, respectively.

With `C[C@@H]1[C@H](F)CN1c1ncc([C@@H](C)CO)c2cc(Nc3ccnc(N4CC[C@@H](O)[C@@](C)(F)C4)n3)ncc12` (single isomer, unassigned) [Example 210, (3S,4R)-3-fluoro-1-(4-((8-((2R,3R)-3-fluoro-2-methylazetidin-1-yl)-5-((R)-1-hydroxypropan-2-yl)-2,7-naphthyridin-3-yl)amino)pyrimidin-2-yl)-3-methylpiperidin-4-ol or (3S,4R)-3-fluoro-1-(4-((8-((2R,3R)-3-fluoro-2-methylazetidin-1-yl)-5-((S)-1-hydroxypropan-2-yl)-2,7-naphthyridin-3-yl)amino)pyrimidin-2-yl)-3-methylpiperidin-4-ol], the results for the half-maximal inhibitory concentration (IC50) (on EGFR (L858R T790M C797S); in test [1]) were less than 15 nM and 10 to 20 nM, respectively.

With `CO[C@H]1CN(c2ncc([C@@H](C)CO)c3cc(Nc4ccnc(N5CC[C@@H](O)[C@@](C)(F)C5)n4)ncc23)[C@@H]1C` (single isomer, unassigned) [Example 211, (3S,4R)-3-fluoro-1-(4-((5-((R)-1-hydroxypropan-2-yl)-8-((2R,3S)-3-methoxy-2-methylazetidin-1-yl)-2,7-naphthyridin-3-yl)amino)pyrimidin-2-yl)-3-methylpiperidin-4-ol or (3S,4R)-3-fluoro-1-(4-((5-((S)-1-hydroxypropan-2-yl)-8-((2R,3S)-3-methoxy-2-methylazetidin-1-yl)-2,7-naphthyridin-3-yl)amino)pyrimidin-2-yl)-3-methylpiperidin-4-ol], the IC50 on EGFR (L858R T790M C797S) is 30 to 100 nM; in test [1] it was greater than 50 nM.

`CO[C@H]1CN(c2ncc([C@@H](C)CO)c3cc(Nc4ccnc(N5CC[C@@H](O)[C@@](C)(F)C5)n4)ncc23)[C@@H]1C` (single isomer, unassigned) [Example 212, (3S,4R)-3-fluoro-1-(4-((5-((R)-1-hydroxypropan-2-yl)-8-((2R,3S)-3-methoxy-2-methylazetidin-1-yl)-2,7-naphthyridin-3-yl)amino)pyrimidin-2-yl)-3-methylpiperidin-4-ol or (3S,4R)-3-fluoro-1-(4-((5-((S)-1-hydroxypropan-2-yl)-8-((2R,3S)-3-methoxy-2-methylazetidin-1-yl)-2,7-naphthyridin-3-yl)amino)pyrimidin-2-yl)-3-methylpiperidin-4-ol]: the IC50 at EGFR (L858R T790M C797S) was less than 15 nM; in test [1] it was 10 to 20 nM.

Turning to `CC(C)c1cnc(N2CC[C@]3(C2)CC3(F)F)c2cnc(Nc3ccnc(N4CC[C@@H](O)[C@@](C)(F)C4)n3)cc12` (single isomer, unassigned) [Example 213, (3S,4R)-1-(4-((8-((R)-1,1-difluoro-5-azaspiro[2.4]heptan-5-yl)-5-isopropyl-2,7-naphthyridin-3-yl)amino)pyrimidin-2-yl)-3-fluoro-3-methylpiperidin-4-ol or (3S,4R)-1-(4-((8-((S)-1,1-difluoro-5-azaspiro[2.4]heptan-5-yl)-5-isopropyl-2,7-naphthyridin-3-yl)amino)pyrimidin-2-yl)-3-fluoro-3-methylpiperidin-4-ol], the IC50 is less than 15 nM on EGFR (L858R T790M C797S) and 10 to 20 nM in test [1].

Regarding `CC(C)c1cnc(N2CC[C@]3(C2)CC3(F)F)c2cnc(Nc3ccnc(N4CC[C@@H](O)[C@@](C)(F)C4)n3)cc12` (single isomer, unassigned) [Example 214, (3S,4R)-1-(4-((8-((R)-1,1-difluoro-5-azaspiro[2.4]heptan-5-yl)-5-isopropyl-2,7-naphthyridin-3-yl)amino)pyrimidin-2-yl)-3-fluoro-3-methylpiperidin-4-ol or (3S,4R)-1-(4-((8-((S)-1,1-difluoro-5-azaspiro[2.4]heptan-5-yl)-5-isopropyl-2,7-naphthyridin-3-yl)amino)pyrimidin-2-yl)-3-fluoro-3-methylpiperidin-4-ol], the IC50 at EGFR (L858R T790M C797S) was in the range of 30 to 100 nM; in test [1], 30 to 50 nM.

For the molecule `COC[C@@H](C)c1cnc(N2CC[C@H]2C)c2cnc(Nc3ccnc(N4CC[C@@H](O)[C@@](C)(F)C4)n3)cc12` (single isomer, unassigned) [Example 215, (3S,4R)-3-fluoro-1-(4-((5-((S)-1-methoxypropan-2-yl)-8-((R)-2-methylazetidin-1-yl)-2,7-naphthyridin-3-yl)amino)pyrimidin-2-yl)-3-methylpiperidin-4-ol or (3S,4R)-3-fluoro-1-(4-((5-((R)-1-methoxypropan-2-yl)-8-((R)-2-methylazetidin-1-yl)-2,7-naphthyridin-3-yl)amino)pyrimidin-2-yl)-3-methylpiperidin-4-ol], the IC50 on EGFR (L858R T790M C797S) is less than 15 nM; in test [1], 30 to 50 nM.

For `COC[C@@H](C)c1cnc(N2CC[C@H]2C)c2cnc(Nc3ccnc(N4CC[C@@H](O)[C@@](C)(F)C4)n3)cc12` (single isomer, unassigned) [Example 216, (3S,4R)-3-fluoro-1-(4-((5-((S)-1-methoxypropan-2-yl)-8-((R)-2-methylazetidin-1-yl)-2,7-naphthyridin-3-yl)amino)pyrimidin-2-yl)-3-methylpiperidin-4-ol or (3S,4R)-3-fluoro-1-(4-((5-((R)-1-methoxypropan-2-yl)-8-((R)-2-methylazetidin-1-yl)-2,7-naphthyridin-3-yl)amino)pyrimidin-2-yl)-3-methylpiperidin-4-ol], the IC50 lay in the range of 15 to 20 nM at EGFR (L858R T790M C797S) and 20 to 30 nM in test [1].

`CO[C@H]1CCN(c2nccc(Nc3cc4c(C(C)C)ccc(N5C[C@H](c6nnco6)[C@H]5C)c4cn3)n2)C[C@@H]1O` (single isomer, unassigned) [Example 217]: the IC50 on EGFR (L858R T790M C797S) is 15 to 20 nM; in test [1], less than 10 nM.

In the case of `CO[C@H]1CCN(c2nccc(Nc3cc4c(C(C)C)ccc(N5C[C@H](c6nncn6C)[C@H]5C)c4cn3)n2)C[C@@H]1O` (single isomer, unassigned) [Example 218], the IC50 on EGFR (L858R T790M C797S) is less than 15 nM; in test [1], 30 to 50 nM.

`CC(C)c1ccc([C@H]2C[C@H](CS(C)(=O)=O)C2)c2cnc(Nc3ccnc(N4CC[C@@H](O)[C@@](C)(F)C4)n3)cc12` [Example 1, (3S,4R)-3-fluoro-1-(4-((5-isopropyl-8-((1r,3S)-3-((methylsulfonyl)methyl)cyclobutyl)isoquinolin-3-yl)amino)pyrimidin-2-yl)-3-methylpiperidin-4-ol]: the IC50 on EGFR (L858R T790M C797S) is less than 15 nM; in test [1] it was less than 10 nM.

For the molecule `CC(=O)N1CC(Cc2ccc(C(C)C)c3cc(Nc4ccnc(N5CC[C@@H](O)[C@@](C)(F)C5)n4)ncc23)C1` [Example 2, 1-(3-((3-((2-((3S,4R)-3-fluoro-4-hydroxy-3-methylpiperidin-1-yl)pyrimidin-4-yl)amino)-5-isopropylisoquinolin-8-yl)methyl)azetidin-1-yl)ethan-1-one], the IC50 was less than 15 nM on EGFR (L858R T790M C797S) and greater than 50 nM in test [1].

With `CC(C)c1ccc(C2CN(S(C)(=O)=O)C2)c2cnc(Nc3ccnc(N4CC[C@@H](O)[C@@](C)(F)C4)n3)cc12` [Example 3, (3S,4R)-3-fluoro-1-(4-((5-isopropyl-8-(1-(methylsulfonyl)azetidin-3-yl)isoquinolin-3-yl)amino)pyrimidin-2-yl)-3-methylpiperidin-4-ol], the IC50 on EGFR (L858R T790M C797S) was less than 15 nM; in test [1], 20 to 30 nM.

On to `CC(=O)N1CC(c2ccc(C(C)C)c3cc(Nc4ccnc(N5CC[C@@H](O)[C@@](C)(F)C5)n4)ncc23)C1` [Example 4, 1-(3-(3-((2-((3S,4R)-3-fluoro-4-hydroxy-3-methylpiperidin-1-yl)pyrimidin-4-yl)amino)-5-isopropylisoquinolin-8-yl)azetidin-1-yl)ethan-1-one], for which the IC50 on EGFR (L858R T790M C797S) is less than 15 nM; in test [1] it was 20 to 30 nM.

As for `Cc1nnc(-c2ncc(C(C)C)c3cc(Nc4ccnc(N5CC[C@@H](O)[C@@](C)(F)C5)n4)ncc23)o1` [Example 5, (3S,4R)-3-fluoro-1-(4-((5-isopropyl-8-(5-methyl-1,3,4-oxadiazol-2-yl)-2,7-naphthyridin-3-yl)amino)pyrimidin-2-yl)-3-methylpiperidin-4-ol], the IC50 on EGFR (L858R T790M C797S) is less than 15 nM; in test [1], 10 to 20 nM.

As for `CC(C)c1ncc(-c2ncn(C)n2)c2cnc(Nc3ccnc(N4CC[C@@H](O)[C@@](C)(F)C4)n3)cc12` [Example 6, (3S,4R)-3-fluoro-1-(4-((5-isopropyl-8-(1-methyl-1H-1,2,4-triazol-3-yl)-2,6-naphthyridin-3-yl)amino)pyrimidin-2-yl)-3-methylpiperidin-4-ol], the IC50 is less than 15 nM at EGFR (L858R T790M C797S) and greater than 50 nM in test [1].
